Test results published in patent US7939288B2, “Method for differentiating between factor XIII deficiency states and fibrinogen deficiency states by means of thrombelastographic techniques” (CSL Behring GmbH, priority 2005, dated 2011).
One block for each compound: values may come before it.

Target: T1, factor XIII (Homo sapiens, UniProt P00488)
T1 construct: The test batch contained: 200 μl of plasma; from tissue; host or cells: standard human plasma
T1 sequence (P00488 39-732 limits assumed): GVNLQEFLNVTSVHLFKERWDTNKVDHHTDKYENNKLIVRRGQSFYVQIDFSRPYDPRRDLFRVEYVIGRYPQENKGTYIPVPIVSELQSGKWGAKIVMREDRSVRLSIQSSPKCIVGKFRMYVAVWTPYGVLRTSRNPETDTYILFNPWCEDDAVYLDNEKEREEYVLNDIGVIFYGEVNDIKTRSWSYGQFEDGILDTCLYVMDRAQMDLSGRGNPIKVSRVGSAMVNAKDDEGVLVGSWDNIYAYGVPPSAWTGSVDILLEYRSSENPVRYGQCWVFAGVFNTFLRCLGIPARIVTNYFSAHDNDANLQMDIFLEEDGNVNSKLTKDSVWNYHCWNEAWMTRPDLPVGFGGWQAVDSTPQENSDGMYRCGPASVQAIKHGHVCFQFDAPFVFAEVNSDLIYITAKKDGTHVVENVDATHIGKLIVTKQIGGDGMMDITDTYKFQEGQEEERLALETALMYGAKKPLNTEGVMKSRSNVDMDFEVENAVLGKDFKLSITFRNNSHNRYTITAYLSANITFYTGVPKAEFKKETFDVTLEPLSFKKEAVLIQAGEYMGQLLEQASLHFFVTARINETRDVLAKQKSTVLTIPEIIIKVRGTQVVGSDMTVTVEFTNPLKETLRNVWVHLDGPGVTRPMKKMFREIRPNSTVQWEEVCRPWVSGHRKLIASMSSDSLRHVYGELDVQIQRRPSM
Assay: TEG of standard human plasma with low molecular weight factor XIII inhibitors, clotting started by tissue factor reagent (Thromborel S)
Assay type: biochemical
Protocol: For the quantitative determination of the influence of factor XIII, standard human plasma with or without addition of low molecular weight factor XIII inhibitors was analysed by means of TEG. The clotting reaction was started or accelerated by addition of a tissue factor reagent. The test batch contained: 200 μl of plasma, 30 μl of NaCl soln (control) or inhibitor solution in different dilutions, 50 μl of tissue factor reagent. (Thromborel S, Dade Behring) and 20 μl of calcium chloride solution (200 mmol/l). The reagents were pipetted into the cup at 37° C. and the TEG measurement was started with Haemoscope apparatuses. Alternatively, the calcium chloride can also be already added to the tissue factor reagent and the reaction thus started. The measurement parameters of reaction time (R), alpha angle, maximum amplitude (MA) and time to achieve the maximum amplitude (MA) were determined and evaluated. […] The investigations carried out here with plasma are in principle also applicable to whole blood.

[1] = concentration in the test 0.033 μg/ml, Table 3
[2] = concentration in the test 0.10 μg/ml, Table 3
[3] = concentration in the test 0.33 μg/ml, Table 3
[4] = concentration in the test 1.00 μg/ml, Table 3
[5] = concentration in the test 3.33 μg/ml, Table 3
[6] = concentration in the test 1.07 μg/ml, standard human plasma
[7] = concentration in the test 1.071 μg/ml (so in the source), standard human plasma
[8] = concentration in the test 3.21 μg/ml, standard human plasma
[9] = concentration in the test 3.214 μg/ml (so in the source), standard human plasma
[10] = concentration in the test 10.7 μg/ml, standard human plasma
[11] = concentration in the test 32.1 μg/ml, standard human plasma
[12] = concentration in the test 107 μg/ml, standard human plasma
[13] = concentration in the test 321 μg/ml, standard human plasma
[14] = concentration in the test 0.32 μg/ml, standard human plasma
[15] = concentration in the test 107 μg/ml, standard human plasma, 107 µg/ml in the test
[16] = concentration in the test 321 μg/ml, standard human plasma, 321 µg/ml in the test
[17] = concentration in the test 536 μg/ml, standard human plasma, 536 µg/ml in the test

MA (concentration in the test 0.033 μg/ml): 21.5 mm
Angle [1]: 79.6 °
R [1]: 22.5 s
TMA [1]: 177.5 s
MA (concentration in the test 0.10 μg/ml): 18.5 mm
Angle [2]: 79.0 °
R [2]: 22.5 s
TMA [2]: 140.0 s
MA (concentration in the test 0.33 μg/ml): 14.9 mm
Angle [3]: 77.0 °
R [3]: 22.5 s
TMA [3]: 77.5 s
MA (concentration in the test 1.00 μg/ml): 13.1 mm
Angle [4]: 75.4 °
R [4]: 22.5 s
TMA [4]: 77.5 s
MA (concentration in the test 3.33 μg/ml): 12.4 mm
Angle [5]: 74.0 °
R [5]: 22.5 s
TMA [5]: 77.5 s
Compound: CC(=O)CSc1n(C)c(C)c(C)[n+]1C.[Cl-] [1,3,4,5-tetramethyl-2-[(2-oxopropyl)thio]imidazolium chloride]

Angle [6]: 73.4 °
MA [6]: 17.8 mm
R [6]: 20.0 s
TMA [6]: 592.5 s
Angle [7]: 70.3 °
MA [7]: 14.0 mm
R [7]: 15.0 s
TMA [7]: 492.5 s
Angle [8]: 75.0 °
MA [8]: 17.9 mm
R [8]: 22.5 s
TMA [8]: 527.5 s
Angle [9]: 71.9 °
MA [9]: 13.0 mm
R [9]: 25.0 s
TMA [9]: 182.5 s
Angle [10]: 74.8 °
MA [10]: 19.2 mm
R [10]: 20.0 s
TMA [10]: 622.5 s
Angle [11]: 73.9 °
MA [11]: 17.2 mm
R [11]: 22.0 s
TMA [11]: 472.5 s
Angle [12]: 73.5 °
MA [12]: 16.9 mm
R [12]: 17.5 s
TMA [12]: 462.5 s
Angle [13]: 72.7 °
MA [13]: 15.5 mm
R [13]: 20.0 s
TMA [13]: 430.0 s
Compound: NCCc1c[nH]cn1 [Histamine]

Angle [14]: 74.0 °
MA [14]: 18.1 mm
R [14]: 20.0 s
TMA [14]: 655.0 s
Angle [6]: 74.9 °
MA [6]: 18.4 mm
R [6]: 22.5 s
TMA [6]: 610.0 s
Angle [8]: 74.7 °
MA [8]: 19.1 mm
R [8]: 20.0 s
TMA [8]: 657.5 s
Angle [10]: 74.4 °
MA [10]: 18.4 mm
R [10]: 25.0 s
TMA [10]: 560.0 s
Angle [11]: 74.4 °
MA [11]: 17.3 mm
R [11]: 17.5 s
TMA [11]: 562.5 s
Angle [15]: 76.9 °
MA [15]: 18.7 mm
R [15]: 32.5 s
TMA [15]: 237.5 s
Angle [16]: 71.0 °
MA [16]: 15.1 mm
R [16]: 20.0 s
TMA [16]: 490.0 s
Angle [17]: 70.3 °
MA [17]: 13.3 mm
R [17]: 27.5 s
TMA [17]: 370.0 s
Compound: CN(C)c1cccc2c(S(=O)(=O)NCCCCCN)cccc12 [Monodansylcadaverine]

Angle [6]: 73.1 °
MA [6]: 17.2 mm
R [6]: 22.5 s
TMA [6]: 452.5 s
Angle [7]: 69.5 °
MA [7]: 13.6 mm
R [7]: 25 s
TMA [7]: 405.0 s
Angle [8]: 73.7 °
MA [8]: 15.9 mm
R [8]: 17.5 s
TMA [8]: 277.5 s
Angle [9]: 72.6 °
MA [9]: 13.9 mm
R [9]: 32.5 s
TMA [9]: 327.5 s
Angle [10]: 73.4 °
MA [10]: 18.7 mm
R [10]: 20.0 s
TMA [10]: 672.5 s
Angle [11]: 73.0 °
MA [11]: 16.9 mm
R [11]: 25 s
TMA [11]: 585.0 s
Angle [12]: 73.0 °
MA [12]: 16.5 mm
R [12]: 15 s
TMA [12]: 505.0 s
Angle [13]: 72.8 °
MA [13]: 15.8 mm
R [13]: 20 s
TMA [13]: 400.0 s
Compound: NCCCCN [Putrescine]
